Data on 80 compounds can be found in the METLIN SMRT retention time set (Domingo-Almenara et al. 2019).

Structures are written as SMILES.

The nature of the series: gradient 5% acetonitrile 3 min, to 50% in 2 min, to 85% in 15 min, held 3 min, 100 µL/min. The conditions noted are these: column: Zorbax Extend-C18 2.1 x 50 mm; eluents: water / acetonitrile, 0.1% formic acid. In a few lines: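 A Zorbax Extend-C18 column (2.1 × 50 mm, 1.8 μm) run at 100 μL/min with water and acetonitrile, both containing 0.1% formic acid, separated mixtures of ~100 pure standards. The HPLC was coupled to a quadrupole time-of-flight mass spectrometer operated in positive and negative ionization mode, with dead and dwell volumes of 40 μL and 900 μL. Each retention time was taken from a computationally picked adduct peak that was then manually inspected.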
For the compound `Cn1cc(-c2cc3n(n2)CCCN3C(=O)CCC(=O)NC2CCCCCC2)c2ccccc21`, the RP-LC retention time is 869 s.

For the compound `CCOC(=O)c1cc(C)nc2c1c(=O)n(Cc1ccccc1F)c(=O)n2C`, the RP-LC retention time came out at 1070 s.

`CCOC(=O)c1c(C)[nH]c(C)c1S(=O)(=O)N1CCC(C(=O)NC2CCCC2)CC1` gave an RP-LC retention time of 735 s.

`c1ccc(-c2nc(CSc3cc(N4CCOCC4)ncn3)cs2)cc1` gave an RP-LC retention time of 817 s.

`CCOc1ccc(CCNC(=O)c2nc(CCS(=O)(=O)c3ccc(F)cc3)no2)cc1OCC` had an RP-LC retention time of 952 s.

The compound `COCCN1C(=O)CCc2cc(NC(=O)Cc3ccccc3OC)ccc21` registered an RP-LC retention time of 731 s.

`CCn1cc(C(=O)NCc2ccc(SC)cc2)c(=O)c2ccc(C)nc21` had an RP-LC retention time of 997 s.

Turning to `Cc1ccc(S(=O)(=O)N2CCCC2c2nc(-c3cccc(Cl)c3)no2)cc1F` (stereo not given), the RP-LC retention time worked out at 1280 s.

`O=C(c1ccc2c(c1)CCN2C(=O)C1CCC1)N1CCCC1` had an RP-LC retention time of 589 s.

Compound `CCc1ccccc1S(=O)(=O)N1CCC(N2CCN(Cc3ccccc3)C(=O)C2=O)CC1` showed an RP-LC retention time of 864 s.

In turn, `CCCS(=O)(=O)c1nc2ccc(NS(=O)(=O)c3ccc(F)c(Cl)c3)cc2s1` came in with an RP-LC retention time of 1020 s.

The compound `CCCN(C(=O)c1ccco1)c1nc(-c2ccccc2)cs1` had an RP-LC retention time of 1250 s.

Turning to `CC(C)Cc1csc(-c2csc(S(=O)(=O)NCc3ccc(F)cc3)c2)n1`, the RP-LC retention time was determined as 1160 s.

`COC(=O)c1cccc(C(=O)Nc2ccc(Br)cc2F)n1` registered an RP-LC retention time of 1000 s.

As for `CCOCC(=O)N1CCCN(C2=NS(=O)(=O)C(c3ccc(F)cc3)=C2C)CC1`, the RP-LC retention time was 711 s.

Compound `c1ccc(-c2nc3cc(-c4noc(-c5ccc6nc[nH]c6c5)n4)ccc3o2)cc1` had an RP-LC retention time of 888 s.

For `Cc1cc(C(=O)Nc2nc(-c3cccc(Cl)c3)c(C)s2)no1`, the RP-LC retention time amounted to 1140 s.

Consider `O=c1c2ccccc2nc2n1CCCC2`, for which the RP-LC retention time was 653 s.

The compound `O=C(Nc1nccs1)C1CCN(Cc2noc(-c3ccc(F)cc3)n2)CC1` showed an RP-LC retention time of 643 s.

`Cc1nn(-c2nc3ccccc3[nH]2)c2c1C(=O)CC(/C=C/c1ccccc1)C2` (stereo not given) returned an RP-LC retention time of 1030 s.

Consider `CC(C)C(=O)N1CCc2cc(CNC(=O)c3ccnn3C)ccc21`, for which the RP-LC retention time is 708 s.

`CC1=C(c2ccccc2)S(=O)(=O)N=C1N1CCCN(C(=O)Cn2ccnc2C)CC1` displayed an RP-LC retention time of 589 s.

Compound `CC(C)c1noc(-c2ccn3c(CC(=O)N4CCSCC4)nnc3c2)n1` gave an RP-LC retention time of 726 s.

With `CC(=O)N1CCN(Cc2ccc([C@H](C)Nc3nccc(N4C(=O)OC[C@@H]4C(C)C)n3)cc2)CC1`, the RP-LC retention time came out at 642 s.

`Cc1ccc(-c2nc3ncccn3c2Nc2ccccc2)cc1` displayed an RP-LC retention time of 714 s.

Compound `CCC(C(=O)NCCc1c[nH]c2ccc(OC)cc12)n1nc(C)c2nn(-c3ccccc3)c(C)c2c1=O` (stereo not given) returned an RP-LC retention time of 895 s.

Compound `CSc1ccc(-c2nc3cccc(C)n3c2Nc2ccc(Cl)cc2)cc1` gave an RP-LC retention time of 788 s.

`CCC(C)NS(=O)(=O)c1cc(-c2nnc(-c3ccccc3)o2)ccc1OC` (stereo not given) showed an RP-LC retention time of 955 s.

Regarding `CCCn1c(CCNC(=O)c2ccc(F)cc2)nc2cccnc21`, the RP-LC retention time is 651 s.

The compound `COc1ccc(NC(=O)Cc2c(C)nn(-c3nc(-c4ccccc4)cs3)c2C)c(OC)c1` showed an RP-LC retention time of 1160 s.

In the case of `COc1ccc(-n2nc(C)c3sc(N4CCCC(C(=O)NC5CCCCC5)C4)nc32)cc1` (stereo not given), the RP-LC retention time is 1110 s.

Regarding `CN1CCN(S(=O)(=O)c2cc(-c3nnc(C4CCCC4)o3)co2)CC1`, the RP-LC retention time is 619 s.

The compound `Cn1nc(CNC(=O)c2ccc(Cl)cc2)c2ccccc21` yielded an RP-LC retention time of 852 s.

On to `COCCCNC(=O)C1CCCN(c2ncc(-c3cccc(F)c3)cn2)C1` (stereo not given), for which the RP-LC retention time was determined as 863 s.

For the compound `COc1ccccc1CNC(=O)c1cn(C)nc1S(=O)(=O)N1CCSCC1`, the RP-LC retention time came to 847 s.

The compound `COCCCNc1ncc(C(=O)O)c(-c2cccc(OC)c2)n1` yielded an RP-LC retention time of 668 s.

Turning to `CNC(=O)c1cc(-c2cccc(F)c2)nc2ccccc12`, the RP-LC retention time is 850 s.

Turning to `Nc1nc(N)c2cc(Sc3cccc(C(F)(F)F)c3)ccc2n1`, the RP-LC retention time stood at 686 s.

As to `CC1CN(C(=O)CCC(=O)NCCCN2CCC(N3CCCCC3)CC2)c2ccccc2O1` (stereo not given), the RP-LC retention time turned out to be 573 s.

As to `CCNc1nc(C)cc(N2CCN(S(=O)(=O)c3ccc(-c4csc(C)n4)s3)CC2)n1`, the RP-LC retention time was 733 s.

Turning to `O=c1ccn(-c2ccc(F)c(F)c2)nc1-c1nc(-c2ccc(F)cc2)no1`, the RP-LC retention time is 904 s.

As for `Cc1cccc(Cn2nc3ccc(S(=O)(=O)N4CCCCCC4)cn3c2=O)c1`, the RP-LC retention time was 1000 s.

In turn, `Cc1ccc(Cl)cc1NS(=O)(=O)c1cc(-c2cc(C(F)(F)F)on2)sc1C` yielded an RP-LC retention time of 1240 s.

For `Cc1cc(C)cc(NC(=O)Cn2ncc3c(c2=O)N(CC2CC2)C(=O)CS3)c1`, the RP-LC retention time came out at 883 s.

Compound `Cc1ccc(Nc2c(-c3ccccc3O)nc3ccc(Cl)cn23)cc1` returned an RP-LC retention time of 1080 s.

Take `Cc1ccc2nc3c(c(C(=O)NC(C)C)c2c1)CCCC3`: the RP-LC retention time is 618 s.

As to `COCc1cc(=O)n(Cc2ccccc2C#N)c(N2CCCC2)n1`, the RP-LC retention time worked out at 744 s.

Turning to `c1ccc(-c2nc3nc4c(c(Nc5ccc6c(c5)OCO6)n3n2)CCCC4)cc1`, the RP-LC retention time amounted to 953 s.

`Cc1nn(C)c(C)c1CCN(C)c1ccc(C(=O)O)cc1NC(=O)c1ccc(Cl)cc1` yielded an RP-LC retention time of 780 s.

`Cc1noc2nc(C)n(CC(=O)NCc3ccc(Cl)cc3)c(=O)c12`: the RP-LC retention time was 783 s.

For the compound `CCOC(=O)N1CCN(C(=O)C2CCCN(c3ccc(-c4ccco4)nn3)C2)CC1` (stereo not given), the RP-LC retention time turned out to be 606 s.

`Cn1ncc2c3ccccc3n(CCCC(=O)N3CCc4ccccc4C3)c2c1=O` had an RP-LC retention time of 931 s.

Turning to `CCOC(=O)c1[nH]c(C)c(CCC(=O)N2CCC(C(=O)NCc3ccc(F)cc3)CC2)c1C`, the RP-LC retention time was found to be 785 s.

`CC(C)NC(=O)CN1CCN(C(=O)c2sc3ncccc3c2-n2cccc2)CC1` registered an RP-LC retention time of 607 s.

In turn, `O=C(Nc1nccs1)C1CCN(S(=O)(=O)C2CC2)CC1` returned an RP-LC retention time of 632 s.

As to `CS(=O)(=O)NCC1CCC(C(=O)Nc2cccc3nsnc23)CC1` (stereo not given), the RP-LC retention time came to 700 s.

The compound `COCCNC(=O)NCCC1CCN(S(=O)(=O)c2ccc(C)cc2)CC1` displayed an RP-LC retention time of 686 s.

Compound `CCCCN(C)C(=O)c1ccc2c(c1)Sc1ncccc1C(=O)N2C(C)C` displayed an RP-LC retention time of 804 s.

For `COc1cccc(NC(=O)Cn2c(C)cc(-c3nnc(-c4ccc(F)cc4)o3)c2C)c1`, the RP-LC retention time worked out at 943 s.

In the case of `CC1CCN(c2nn(CC(=O)Nc3cccc(C(C)C)c3)c(=O)c3ccccc23)CC1`, the RP-LC retention time amounted to 1320 s.

`Cc1ccc2c(=O)c3c([nH]c2c1C)CCN(CC(=O)Nc1ccc(F)c(Cl)c1)C3` registered an RP-LC retention time of 665 s.

In the case of `CC(C)OCCCNC(=O)C(C)n1c2ccccc2c2cnn(C)c(=O)c21` (stereo not given), the RP-LC retention time turned out to be 803 s.

As to `Cc1c(C(=O)Nc2ccccc2)sc2nc[nH]c(=O)c12`, the RP-LC retention time was 679 s.

The compound `O=C(CSc1ccc(NC(=O)C2CC2)nn1)NCc1cccs1` showed an RP-LC retention time of 652 s.

As for `COc1ccc(NC(=O)Cn2nc(N3CCCC(C)C3)c3ccccc3c2=O)c(OC)c1` (stereo not given), the RP-LC retention time is 1100 s.

`CCOc1cccc(NC2=NS(=O)(=O)c3ccccc32)c1` returned an RP-LC retention time of 843 s.

Turning to `COc1ccc(Cl)cc1C(=O)Nc1cnc(N2CCCC2)nc1`, the RP-LC retention time was determined as 818 s.

`COCCCNC(=O)C1COc2ccc(NC(=O)c3ccc(Br)cc3)cc2C1` (stereo not given) had an RP-LC retention time of 788 s.

Turning to `CCc1nc(-n2cccc2)sc1C(=O)Nc1ccc(F)cc1`, the RP-LC retention time turned out to be 1080 s.

`O=C(NCCC1CCN(S(=O)(=O)c2ccccc2)CC1)NC1CCCCC1` yielded an RP-LC retention time of 865 s.

`CC(C)CN(CC(C)C)C(=O)C1CCCN(c2ncnc3c2nc2n3CCCCC2)C1` (stereo not given) had an RP-LC retention time of 1000 s.

Take `CCc1cc(-c2csc(S(=O)(=O)NCC3CCN(Cc4ccc(Cl)cc4)CC3)c2)on1`: the RP-LC retention time came out at 739 s.

In the case of `Cc1sc(NC(=O)c2ccco2)nc1-c1ccc2c(c1)NC(=O)CO2`, the RP-LC retention time is 770 s.

`COCCOCc1nc(C2CCCN2C(=O)c2cccs2)no1` (stereo not given) registered an RP-LC retention time of 690 s.

In turn, `CCOC(=O)c1ccc(NC(=O)N2CCc3cn(CC)c4cccc(c34)C2)cc1` yielded an RP-LC retention time of 1150 s.

For the compound `Cc1ccc(-c2nc(C3CCN(S(=O)(=O)c4ccccc4F)CC3)no2)cc1`, the RP-LC retention time was determined as 1170 s.

Compound `Cc1cc(-c2nnc(-c3ccccc3)o2)c(C)n1CC(=O)Nc1ccc(Cl)cc1` had an RP-LC retention time of 1020 s.

As to `CCOc1cncc(C(=O)N2CCCCC2C)c1` (stereo not given), the RP-LC retention time worked out at 725 s.

As to `CCCNC(=O)C1CCN(c2ccc(SCC(=O)Nc3cc(OC)cc(OC)c3)nn2)CC1`, the RP-LC retention time turned out to be 653 s.

Consider `COc1cccc(-c2noc(C3CC(=O)N(c4cccc(Cl)c4)C3)n2)c1OC` (stereo not given), for which the RP-LC retention time was determined as 936 s.
